Assay results from ChEMBL document CHEMBL1145742, “Investigation of an antibody-ligase. Evidence for strain-induced catalysis” (Bioorg Med Chem Lett, 2003).

Assays:
[1] = Kinetic parameter KM against monoclonal antibody 16 G3
[2] = Kinetic parameter Vmax against monoclonal antibody 16 G3
[3] = Substrate specificity, the ratio of Kcat to that of Km was determined against monoclonal antibody 16 G3
[4] = Kinetic parameter Kcat against monoclonal antibody 16 G3
[5] = Kinetic parameter effective molarity against monoclonal antibody 16 G3
[6] = Kinetic parameter Kuncat against monoclonal antibody 16 G3

| Km [1] [µM] | Vmax [2] [µM/min] | Substrate specificity [3] | k cat [4] [s⁻¹] | Molarity [5] [M] | Kuncat [6] [M⁻¹ s⁻¹] | Compound |
| --- | --- | --- | --- | --- | --- | --- |
| 900 |  |  |  |  |  | NC(=O)[C@H](N)Cc1c[nH]c2ccccc12 |
| 300 | 1 | 3 | 0.00167 | 2 | 0.000833 | O=C(O)CCCC(=O)N[C@H](C(=O)Oc1ccc([N+](=O)[O-])cc1)C1CCCCC1 |
| 100 | 6 | 6 | 0.01 | 15 | 0.000667 | O=C(O)CCCC(=O)N[C@@H](Cc1ccccc1)C(=O)Oc1ccc([N+](=O)[O-])cc1 |
